# Results as given in patent publication US4801614A, “Process for using endogenous enkephalins and endorphins to inhibit growth of tumerous cells” (TNI Pharmaceuticals, Inc., priority 1987, dated 1989).
# Read-outs that look alike come from different tables or passages of the source.
# System: L1210 tumor cells
# Conditions: 30 mg/Kg s.c. methionine-enkephalin where combined
# Source text: Groups of BDF1 female mouse strain (16-20 gms) were inoculated with L1210 (leukemia) tumor cells (1×10^4, 1×10^3, or 1×10^2 cells) and observed for survival. The L1210 line of tumor cells was maintained in DBA/2 host mice. Ascitic fluid from the DBA/2 mice was used to inoculate the BDF1 mice transferred in RPMI 1640 buffer at pH 8-9).
# In order to test for any synergistic effect of using an endogenous enkephalin with a known chemo-therapeutic agent, a study involving the inoculation of groups of mice with massive doses (1×10^6 ) of L1210 tumor cells was performed in a manner analogous to the previous examples transferred in RPMI 1640 at pH 7.
structure (smiles),measurement,setting,value
"N.N.[Cl][Pt][Cl] [Cis-platin, cis-platin]",cumulative dead,"2 mg/Kg cis-platin, day 9",3/20
same,cumulative dead,"2 mg/Kg cis-platin, day 10",13/20
same,cumulative dead,"2 mg/Kg cis-platin, day 11",14/20
same,cumulative dead,"2 mg/Kg cis-platin, day 12",15/20
same,cumulative dead,"2 mg/Kg cis-platin, day 13",17/20
same,cumulative dead,"2 mg/Kg cis-platin, day 14",19/20
same,Median Day of Death (ED50),"2 mg/Kg cis-platin, saline control 9 Days",10 days
same,cumulative dead,"4 mg/Kg cis-platin, day 11",10/20
same,cumulative dead,"4 mg/Kg cis-platin, day 12",15/20
same,cumulative dead,"4 mg/Kg cis-platin, day 13",19/20
same,cumulative dead,"4 mg/Kg cis-platin, day 15",20/20
same,Median Day of Death (ED50),"4 mg/Kg cis-platin, saline control 8 Days",10 days
same,Median Day of Death (ED50),"8 mg/Kg cis-platin, saline control 8 days",12 days
same,cumulative dead,"single dose 8 mg/Kg cis-platin, day 9",2/20
same,cumulative dead,"single dose 8 mg/Kg cis-platin, day 12",4/20
same,cumulative dead,"single dose 8 mg/Kg cis-platin, day 13",7/20
same,cumulative dead,"single dose 8 mg/Kg cis-platin, day 14",12/20
same,cumulative dead,"single dose 8 mg/Kg cis-platin, day 15",16/20
same,cumulative dead,"single dose 8 mg/Kg cis-platin, day 16",18/20
same,cumulative dead,"single dose 8 mg/Kg cis-platin, day 18",19/20
same,cumulative dead,"single dose 8 mg/Kg cis-platin, day 20",20/20
